Assay results reported in patent publication US20060084627A1, “Synergistic interaction of abacavir and alovudine” (Medivir AB, priority 2002, published 2006).

Experiments:
multiresistant HIV = details: patients, alovudine 7.5 mg qd add-on for four weeks
Experimental: A phase IIa trial was performed with 15 patients failing their current NRTI-containing regimens. Each patient had HIV RNA>1000 cp/ml, with at least 2 mutations in the viral RT induced by previous viral therapy, as established by genotypic assay.
The patents were administered qd 7.5 mg alovudine in a conventional carrier in addition to their current regimen for four weeks. The current regimes included various permutations of 3-5 HIV antivirals selected from 3TC, ddI, D4T, nevirapine, DMP, ritonavir, kaletra, saquinavir, amprenavir and indinavir, administered in their conventional dosage forms and regimens. Antiviral load evaluation was performed weekly and then four weeks after discontinuation of alovudine.
As this clinical trial was performed as an add-on therapy to the patients pre-existing regime, it will be appreciated that the alovudine qd was administered in a separate dosage form to the abacavir (typically bd) and other antvirals (typically administered […]).

HIV-1, IIIb = experiment: microbe, parasite or virus in culture; format: cell-based; details: Human immunodeficiency virus 1, IIIB, MT4; alovudine alone at 0.003 uM, FIG. 3
Experimental: The antiviral effects of MIV-310 in combination with other NRTIs on HIV-1 replication in MT4 cells were examined by the median effect method (Chao and Talalay 1983). The assay was performed in microtiter plates with each well containing 10^5 cells and 20-50 tissue culture infective doses of HIV-1, IIIb. Each drug alone and a mixture of the drugs in a constant ratio were serially diluted in 2-fold steps and added to the wells in quadruplicates. The constant ratio is selected to reflect the relative potency of the drugs. […] The anti-viral effect was measured day 5 using the XTT calorimetric method.
A combination index (CI) less than 1 indicates synergism, CI equal to zero indicates addition and a CI greater than 1 indicates antagonism. Once again, the combinations have been tested at molar ratios reflecting their relative ED50s in cell culture.

**Q.** Which results are given for `Cc1cn([C@H]2C[C@H](F)[C@@H](CO)O2)c(=O)[nH]c1=O` [alovudine, 3′-deoxy-3′-fluorothymidine]?
**A.** serious adverse events (multiresistant HIV): no serious adverse events; tolerability (multiresistant HIV): generally well tolerated; transient mean increase in CD4 counts (multiresistant HIV): +52 counts/mm^3; inhibition at 0.003 µM (HIV-1, IIIb): 27%
